The values below come from EP1826201A1, “Substituted phenylpiperidine derivatives as melanocortin-4 receptor modulators” (Santhera Pharmaceuticals (Schweiz) AG, priority 2006, dated 2007).

Structures are written as SMILES.

Experiment [1] deals with T1, hMC-4R (Homo sapiens, UniProt P32245).
T1 construct: expressed in transfected cells; host or cells: HEK293
Description: Functional assay (membrane based cAMP fluorescence polarization assay, agonistic activity). Type of experiment: biochemical. The conditions noted are these: for % activation functional assay / Emax: cAMP produced compared to stimulation with NDP-alpha-MSH; for Emax: read-out: % activation functional assay; for EC50: membrane preparations from HEK293 cells expressing the human melanocortin receptors, cAMP production. The protocol: Agonistic activity of human melanocortin receptors is determined in a homogeneous membrane based assay.
Membrane preparations from HEK293 cells expressing the human melanocortin receptors are added. After a short preincubation period, an appropriate amount of ATP, GTP and the cAMP antibody is added and the plate is further incubated before the fluorescence labeled cAMP conjugate is dispensed. The plate is incubated for 2 h at 4°C before it is read on a fluorescence polarization microplate reader. The amount of cAMP produced as a response to a test compound is compared to the production of cAMP resulting from stimulation with NDP-alpha-MSH.

The target in experiment [2] is T1, hMC-4R. Description: Membrane binding assay (fluorescence polarization, competition with fluorescence labeled NDP-alpha-MSH). The conditions noted are these: HEK293 cell membrane preparations expressing human melanocortin receptors; 5 h at room temperature. A general note: Polarisation of emitted light reports the rotation of a fluorescent probe.

T1 sequence (P32245 whole entry): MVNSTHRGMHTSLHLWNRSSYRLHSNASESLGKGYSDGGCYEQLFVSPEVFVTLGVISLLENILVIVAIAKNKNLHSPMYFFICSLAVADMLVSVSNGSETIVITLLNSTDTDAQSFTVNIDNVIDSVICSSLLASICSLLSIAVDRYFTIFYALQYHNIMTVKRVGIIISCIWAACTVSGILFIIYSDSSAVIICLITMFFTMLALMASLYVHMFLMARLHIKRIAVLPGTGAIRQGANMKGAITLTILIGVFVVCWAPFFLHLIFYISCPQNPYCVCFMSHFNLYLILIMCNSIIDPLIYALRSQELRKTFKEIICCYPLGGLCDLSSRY

Take `NC(Cc1ccc(Cl)cc1Cl)C(=O)N1CCC(c2ccccc2OCCN2CCCC2)CC1` (centres unmarked) [Example 1]: the “% activation functional assay” value on hMC-4R [1] is recorded as “no activation”. The same compound returned an IC50 at hMC-4R [2] of 0.13 µM.

For the compound `NC(Cc1ccc(Cl)cc1Cl)C(=O)N1CCC(c2ccc(F)cc2OCCN2CCCC2)CC1` (centres unmarked) [Example 2], the Emax on hMC-4R [1] was found to be 22%. Besides, at hMC-4R [2], the IC50 is 0.064 µM.

As for `NC(Cc1ccc(Cl)cc1Cl)C(=O)N1CCC(c2ccc(Cl)cc2OCCN2CCCC2)CC1` (centres unmarked) [Example 3], the “% activation functional assay” value on hMC-4R [1] is “no activation”. Further, on hMC-4R [2], the IC50 worked out at 0.028 µM.

`NC(Cc1ccc(Cl)cc1Cl)C(=O)N1CCC(c2cc(F)c(F)cc2OCCN2CCCC2)CC1` (centres unmarked) [Example 7]: the Emax on hMC-4R [1] is 29%. For the same compound, on hMC-4R [2], the IC50 worked out at 0.057 µM.

Take `NC(Cc1ccc(Cl)cc1)C(=O)N1CCC(c2ccccc2OCCN2CCCC2)CC1` (centres unmarked) [Example 101]: at hMC-4R [1], the Emax amounted to 78% and the EC50 was determined as 1.6 µM. The compound further showed an IC50 on hMC-4R [2] of 0.47 µM.

In the case of `NC(Cc1ccc(Cl)cc1)C(=O)N1CCC(c2cc(F)ccc2OCCN2CCCC2)CC1` (centres unmarked) [Example 105], at hMC-4R [1], the Emax worked out at 90% and a half-maximal effect (EC50) was put at 0.57 µM. The IC50 on hMC-4R [2] came to 0.26 µM.

For `NC(Cc1ccc(Cl)cc1)C(=O)N1CCC(c2cc(Cl)ccc2OCCN2CCCC2)CC1` (centres unmarked) [Example 106], at hMC-4R [1], the Emax was 87% and the EC50 was 0.23 µM. In addition, the IC50 on hMC-4R [2] was found to be 0.15 µM.

For `NC(Cc1ccc(Cl)cc1)C(=O)N1CCC(c2ccc(Cl)cc2OCCCN2CCCCC2)CC1` (centres unmarked) [Example 110], on hMC-4R [1], the Emax was 73% and the EC50 stood at 0.28 µM. In addition, the IC50 at hMC-4R [2] came out at 0.19 µM.

Turning to `NC(Cc1ccc(Cl)cc1)C(=O)N1CCC(c2cc(F)c(F)cc2OCCN2CCCC2)CC1` (centres unmarked) [Example 111], on hMC-4R [1], the Emax was 75% and the EC50 worked out at 0.17 µM. The IC50 on hMC-4R [2] came to 0.31 µM.

With `NC(Cc1ccc(Cl)cc1)C(=O)N1CCC(c2cc(F)c(F)cc2OCCN2CCCCC2)CC1` (centres unmarked) [Example 112], on hMC-4R [1], the Emax was found to be 73% and the EC50 was 0.11 µM. Further, the IC50 on hMC-4R [2] is 0.26 µM.

As to `NC(Cc1ccc(Cl)cc1)C(=O)N1CCC(c2ccccc2CCCN2CCCC2)CC1` (centres unmarked) [Example 113], at hMC-4R [1], the Emax was 78% and the EC50 is 1.1 µM. Moreover, at hMC-4R [2], the IC50 came to 0.79 µM.

As for `NC(Cc1ccc(Cl)cc1)C(=O)N1CCC(c2ccc(F)cc2CCCN2CCCC2)CC1` (centres unmarked) [Example 114], at hMC-4R [1], the Emax turned out to be 89% and the EC50 stood at 0.64 µM. The IC50 on hMC-4R [2] worked out at 0.29 µM.

In general, IC50 refers to the concentration that inhibits the measured activity by half. A low value points to greater potency. As usually defined, the EC50 is the midpoint of the concentration-response curve. A lower EC50 goes with a more potent agent.
